Laboratory results as given in patent US6083976A, “Method of synthesis of derivatives of aloesin” (Univera Pharmaceuticals, Inc., priority 1999, dated 2000).
Read-outs that look alike come from different tables or passages of the source.

Legend:
[1] = relative to hydroquinone; cited from earlier work
tyrosinase [2] = assay: Tyrosinase activity assay using L-DOPA as a substrate; format: biochemical; details: for IC50: L-DOPA 0.4 mM, 48 U tyrosinase, absorbance at 475 nm, read-out: average concentration for 50% tyrosinase inhibition
Protocol: Example 2 illustrates the general method for determination of tyrosinase inhibition by the alkylated aloesins, using octylaloesin for purposes of illustration.
A tyrosinase activity assay was performed using L-DOPA as a substrate. Each 750 μL assay mixture contained KH2 PO4 /K2 HPO4 at a concentration of 50 mM, L-DOPA at a concentration of 0.4 mM, 48 U of tyrosinase activity (tyrosinase obtained from SIGMA at 4,400 U/mg), and varying concentrations of the inhibitor being tested. The progress of the reaction was monitored by measuring the absorbance of the reaction mixture at 475 nm.

tyrosinase [3] = details: cited from earlier work

Row | IC50 (tyrosinase [2]) | Compound | quantity required to achieve a similar effect, compared to the quantity of hydroquinone used [1] | mode of tyrosinase inhibition (Lineweaver Burk diagram) (tyrosinase [3]) | also measured
1 | – | O=C1O[C@H]([C@@H](O)CO)C(O)=C1O [ascorbic acid] | 17 times | – | –
2 | – | OC[C@H]1O[C@@H](Oc2ccc(O)cc2)[C@H](O)[C@@H](O)[C@@H]1O [arbutin] | over 100 times | – | –
3 | 107 µM | CCCCCCCCOc1cc(C)c2c(=O)cc(CC(C)=O)oc2c1[C@@H]1O[C@H](CO)[C@@H](O)[C@H](O)[C@H]1O [Octylaloesin] | – | – | fold more potent as a tyrosinase inhibitor than aloesin (tyrosinase [2]; ratio of 50% inhibition concentrations): approximately 2.3 fold
4 | 250 µM | CC(=O)Cc1cc(=O)c2c(C)cc(O)c([C@@H]3O[C@H](CO)[C@@H](O)[C@H](O)[C@H]3O)c2o1 [Aloesin] | – | non-competitive inhibitors of tyrosinase | IC50 (tyrosinase [3]; substrate L-DOPA, read-out: concentration for 50% inhibition of tyrosinase activity): 200 µM
5 | – | COc1cc(/C=C/C(=O)O[C@@H]2[C@@H](O)[C@H](O)[C@@H](CO)O[C@H]2c2c(O)cc(C)c3c(=O)cc(CC(C)=O)oc23)ccc1O [2"-O-feruloylaloesin] | – | non-competitive inhibitors of tyrosinase | –
